Test results as given in article PMC11927176 (BMC Microbiology, 2025).

Test system: AadA37
Assay: coupled continuous spectrophotometric assay of pyrophosphate release
Type: biochemical, Morganella morganii
Details: 5 mM ATP, 10 mM MgCl2, 50 mM HEPES pH 7.5, 37 °C

CN[C@@H]1[C@H](O)[C@H](NC)[C@H]2O[C@@]3(O)C(=O)C[C@@H](C)O[C@H]3O[C@@H]2[C@H]1O [Spectinomycin] was tested. Which Km did it give?
Its Km is 8.17 µM.

CN[C@@H]1[C@H](O[C@H]2[C@H](O[C@H]3[C@H](O)[C@@H](O)[C@H](N=C(N)N)[C@@H](O)[C@@H]3N=C(N)N)O[C@@H](C)[C@]2(O)C=O)O[C@@H](CO)[C@H](O)[C@H]1O [Streptomycin] was tested. Which Km did it give?
The Km was 2.67 µM.
